Source: patent US20250002526A1, “PHARMACEUTICAL COMPOSITION HAVING ANTI-CANCER IMMUNOSTIMULATING EFFECT AND/OR IMMUNE CHECKPOINT INHIBITION POTENTIATING EFFECT” (KYUSHU UNIVERSITY, NATIONAL UNIVERSITY CORPORATION, priority 2021, published 2025)
Entries after “also recorded” stand apart in the source; their conditions may differ. Like-named read-outs stand apart in the source and are kept apart here.

Assays:
[1] = tested on: SULT2B1b-mediated CS production in E0771-SULT cells; experiment: CS production inhibitory effect in E0771-SULT cells (LC/MS/MS quantification of CS); format: cell-based, mouse; details: Mus musculus; for activity at 10 µM: relative to control (100%)
Procedure, shortened: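 Mouse E0771 breast cancer cells expressing SULT2B1b, seeded at 5×10^5 cells/well and cultured 24 h with or without test compound. CS extracted with deuterated internal standards and quantified by LC/MS/MS (ESI, MRM) against calibration curves. Values are % of CS production in untreated cells.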

E0771-SULT cells [2] = experiment: Trans-cancer migration assay (CCL21-induced T-cell migration); format: cell-based, mouse; details: E0771-SULT cells pretreated with cholenoic acid (5 μM)
Text: FIG. 10 is a series of diagrams showing experimental results (6) in Experiment Example 1 (identification of cholenoic acid as a SULT2B1b inhibitor that promotes anti-tumor immunity). […] The data were acquired from two independent experiments, and expressed as mean±SD. * P<0.05; ** P<0.01 (one-way ANOVA followed by Dunnett's post-hoc test). The level of CCL21-induced T-cell migration in E0771-MOCK cells (CCL21+, SULT−) was used as a control for comparison. FIGS. 10B and 10C show results of enzyme kinetic analysis for SULT2B1b inhibition by cholenoic acid (3-OH-5-Chln). SULT2B1b protein (0.3 or 0.6 μM) was preincubated with cholenoic acid (20 or 40 μM) or a vehicle (2% DMSO), and reacted with cholesterol at different concentrations in the presence of 100 μM PAPS (FIG. 10B) or reacted with PAPS at different concentrations in the presence of 10 μM cholesterol (FIG. 10C). The data were fitted to the Michaelis-Menten equation (the left figures in FIGS. 10B and 10C), and their inhibition modes were analyzed with Lineweaver-Burk plots (right figures).
In carrying out the migration assay, T cells were loaded on E0771-MOCK cells (expressing only a vector; SULT−) or E0771-SULT cells (SULT+) seeded on Matrigel in an upper chamber.

E0771-SULT cells [3] = experiment: Oral cholenoic acid in mice with transplanted E0771-SULT cells: CS production and CD8+ T cell infiltration in tumor; format: in vivo, mouse

C[C@H](CCC(=O)O)[C@H]1CC[C@H]2[C@@H]3CC=C4C[C@@H](O)CC[C@]4(C)[C@H]3CC[C@]12C [Compound 1, (R)-4-((3S,8S,9S,10R,13R,14S,17R)-3-hydroxy-10,13-dimethyl-2,3,4,7,8,9,10,11,12,13,14,15,16,17-tetradecahydro-1H-cyclopenta[a]phenanthren-17-yl)pentanoic acid]
activity at 10 µM ([1]; 24 h, read-out: CS production % activity at 10 μM, E0771-SULT cells, 24 hours, test compound 10 μM (Table 1)): 35.8% | activity at 10 µM ([1]; 24 h, read-out: CS production % activity at 10 μM, E0771-SULT cells, 24 hours, third concentration column of Table 1, head again printed 10 μM): 47.1% | activity at 20 µM ([1]; 24 h, read-out: CS production % activity at 20 μM, E0771-SULT cells, 24 hours, test compound 20 μM, relative to control without compound (100%)): 30.8% | IC50 ([1]; read-out: IC50 value (CS production)): 5.8 µM | CCL21-induced T-cell migration suppressed by E0771-SULT cells (E0771-SULT cells [2]): suppression effect was not observed; also recorded: recovery | CS production in tumor (E0771-SULT cells [3]; oral administration on days 5, 6 and 7, analysed day 8, listed as cholenoic acid): local reduction in CS production; also recorded: locally inhibited | CD8+ T cell infiltration in tumor (E0771-SULT cells [3]; oral administration on days 5, 6 and 7, low CS region on day 8): CD8^+ T cell infiltration was induced
